Reference: patent EP4678638A1, “NEW E3 UBIQUITIN LIGASE LIGAND, PROTEIN DEGRADATION AGENT AND USE THEREOF” (priority 2023, dated 2024)

Molecular target: T1, FAK (Homo sapiens, UniProt Q05397)
T1 construct: evaluate the effects of the compounds of the present disclosure on the expression of target proteins in cells; endogenous in cells
Assay: Western blot degradation of FAK
Format: cell-based
Settings: Table D7
Method: Conventional Western blot assay was performed to evaluate the effects of the compounds of the present disclosure on the expression of target proteins in cells.
(1) Cell Seeding and Protein Harvesting: The selected cells were processed according to the cell seeding procedure and protein harvesting procedure in Table III-2. Table III-2 Cell Seeding and Protein Harvesting Procedures
(2) To the collected supernatant, 5X SDS sample loading buffer was added, followed by denaturation at 95°C for 5 minutes. The denatured samples were then separated by SDS-PAGE electrophoresis on a polyacrylamide gel. Proteins were transferred to a nitrocellulose membrane (0.45 µm NC membrane), blocked with blocking buffer at room temperature for 1 hour, and subjected to antibody incubation and development procedures according to the antibody manufacturer's instructions (Cell Signaling Technology).
Half-Maximal Degradation Concentration value (the drug concentration required for degrading proteins by 50%, abbreviated as DC50) reads method: comparing the grayscale values of Western blot bands from drug-treated samples with those from blank DMSO-treated controls, and identifying the drug concentration range at which the grayscale value is half that of the DMSO-treated control bands.
DC50 values can be calculated using ImageJ software to measure grayscale values of Western blot bands from drug-treated samples. The concentration-response curve is fitted to estimate the drug concentration corresponding to half the grayscale value.
Target protein remaining (%) refers to the percentage of target protein remaining in hPBMC cells after treatment with protein degrader compounds.
Calculation method for target protein remaining (%): Use ImageJ software to measure grayscale values of Western blot bands from drug (protein degrader)-treated samples. The grayscale value of drug-treated bands is divided by that of internal control protein bands, and the resulting quotient is normalized to obtain the relative percentage of remaining target protein after protein degrader treatment.
Target protein degradation rate (%) = 100% - target protein remaining (%).

T1 sequence (Q05397 whole entry, species assumed): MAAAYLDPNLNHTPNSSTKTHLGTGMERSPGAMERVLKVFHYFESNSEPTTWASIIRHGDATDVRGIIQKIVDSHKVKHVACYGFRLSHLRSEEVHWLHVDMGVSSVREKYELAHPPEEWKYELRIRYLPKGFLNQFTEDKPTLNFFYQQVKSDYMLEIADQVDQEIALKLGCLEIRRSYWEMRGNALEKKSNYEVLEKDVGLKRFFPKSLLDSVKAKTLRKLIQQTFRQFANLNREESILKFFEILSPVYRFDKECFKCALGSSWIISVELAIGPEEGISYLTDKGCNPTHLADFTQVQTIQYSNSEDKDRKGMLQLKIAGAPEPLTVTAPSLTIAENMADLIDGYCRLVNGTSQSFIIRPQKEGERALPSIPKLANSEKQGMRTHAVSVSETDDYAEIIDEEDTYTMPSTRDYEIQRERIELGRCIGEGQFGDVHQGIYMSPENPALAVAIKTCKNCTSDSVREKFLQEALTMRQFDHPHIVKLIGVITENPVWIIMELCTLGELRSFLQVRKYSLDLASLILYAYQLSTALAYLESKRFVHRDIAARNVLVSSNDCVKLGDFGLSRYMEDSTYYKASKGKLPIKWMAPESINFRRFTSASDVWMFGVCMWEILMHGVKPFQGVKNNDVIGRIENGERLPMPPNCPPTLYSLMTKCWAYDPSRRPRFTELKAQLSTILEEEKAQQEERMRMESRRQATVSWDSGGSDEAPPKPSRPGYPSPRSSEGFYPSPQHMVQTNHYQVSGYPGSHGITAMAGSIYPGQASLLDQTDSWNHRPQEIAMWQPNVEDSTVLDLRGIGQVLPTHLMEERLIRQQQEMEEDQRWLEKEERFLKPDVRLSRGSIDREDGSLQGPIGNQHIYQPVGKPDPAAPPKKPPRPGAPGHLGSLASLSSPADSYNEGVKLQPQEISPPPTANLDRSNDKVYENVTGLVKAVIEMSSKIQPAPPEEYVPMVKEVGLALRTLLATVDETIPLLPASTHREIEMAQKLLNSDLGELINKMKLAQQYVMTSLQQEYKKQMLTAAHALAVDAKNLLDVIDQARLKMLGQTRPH

SMILES	Degradation of substrate protein FAK (substrate protein remaining %)
CNC(=O)c1ccccc1Nc1cc(Nc2ccc(N3CCC(N(C)Cc4ccc(C5CCC(=O)NC5=O)nc4)CC3)cc2OC)ncc1C(F)(F)F (centres unmarked) [GT-07657, 2-((2-((4-(4-(((6-(2,6-dioxopiperidin-3-yl)pyridin-3-yl)methyl)(methyl)amino)piperidin-1-yl)-2-methoxyphenyl)amino)-5-(trifluoromethyl)pyridin-4-yl)amino)-N-methylbenzamide]	A (A is defined as 0% ≤ substrate protein remaining % ≤ 80%)
CN(c1nccnc1CNc1nc(Nc2ccc(N3CCN(Cc4ccnc(C5CCC(=O)NC5=O)c4)CC3)cc2)ncc1C(F)(F)F)S(C)(=O)=O (centres unmarked) [GT-07507, N-(3-(((2-((4-(4-((2-(2,6-dioxopiperidin-3-yl)pyridin-4-yl)methyl)piperazin-1-yl)phenyl)amino)-5-(trifluoromethyl)pyrimidin-4-yl)amino)methyl)pyrazin-2-yl)-N-methylmethanesulfonamide]	A (A is defined as 0% ≤ substrate protein remaining % ≤ 80%)
CNC(=O)c1ccccc1Nc1cc(Nc2cc(C)c(C3CCN(Cc4ccc(C5CCC(=O)NC5=O)cc4)CC3)cc2OC(C)C)ncc1C(F)(F)F (centres unmarked) [GT-04084, 2-((2-((4-(1-(4-(2,6-dioxopiperidin-3-yl)benzyl)piperidin-4-yl)-2-isopropoxy-5-methylphenyl)amino)-5-(trifluoromethyl)pyridin-4-yl)amino)-N-methylbenzamide]	A (A is defined as 0% ≤ substrate protein remaining % ≤ 80%)
CNC(=O)c1ccccc1Nc1cc(Nc2cc(C)c(C3CCN(Cc4cncc(C5CCC(=O)NC5=O)c4)CC3)cc2OC(C)C)ncc1C(F)(F)F (centres unmarked) [GT-07678, 2-((2-((4-(1-((5-(2,6-dioxopiperidin-3-yl)pyridin-3-yl)methyl)piperidin-4-yl)-2-isopropoxy-5-methylphenyl)amino)-5-(trifluoromethyl)pyridin-4-yl)amino)-N-methylbenzamide]	A (A is defined as 0% ≤ substrate protein remaining % ≤ 80%)
CN(c1nccnc1CNc1nc(Nc2ccc(N3CCN(Cc4ccnc(N5CCC(=O)NC5=O)c4)CC3)cc2)ncc1C(F)(F)F)S(C)(=O)=O [GT-07406, N-(3-(((2-((4-(4-((2-(2,4-dioxotetrahydropyrimidin-1(2H)-yl)pyridin-4-yl)methyl)piperazin-1-yl)phenyl)amino)-5-(trifluoromethyl)pyrimidin-4-yl)amino)methyl)pyrazin-2-yl)-N-methylmethanesulfonamide]	A (A is defined as 0% ≤ substrate protein remaining % ≤ 80%)
CN(c1nccnc1CNc1nc(Nc2ccc(N3CCN(Cc4cc(N5CCC(=O)NC5=O)ncc4F)CC3)cc2)ncc1C(F)(F)F)S(C)(=O)=O [GT-07405, N-(3-(((2-((4-(4-((2-(2,4-dioxotetrahydropyrimidin-1(2H)-yl)-5-fluoropyridin-4-yl)methyl)piperazin-1-yl)phenyl)amino)-5-(trifluoromethyl)pyrimidin-4-yl)amino)methyl)pyrazin-2-yl)-N-methylmethanesulfonamide]	A (A is defined as 0% ≤ substrate protein remaining % ≤ 80%)
CN(c1nccnc1CNc1nc(Nc2ccc(N3CCN(Cc4ccc(N5CCC(=O)NC5=O)cc4)CC3)cc2)ncc1C(F)(F)F)S(C)(=O)=O [GT-07400, N-(3-(((2-((4-(4-(4-(2,4-dioxotetrahydropyrimidin-1(2H)-yl)benzyl)piperazin-1-yl)phenyl)amino)-5-(trifluoromethyl)pyrimidin-4-yl)amino)methyl)pyrazin-2-yl)-N-methylmethanesulfonamide]	A (A is defined as 0% ≤ substrate protein remaining % ≤ 80%)
CNC(=O)c1ccccc1Nc1cc(Nc2cc(C)c(N3CCN(Cc4ccc(C5CCC(=O)NC5=O)c(F)c4)CC3)cc2OC(C)C)ncc1C(F)(F)F (centres unmarked) [GT-03947, 2-((2-((4-(4-(4-(2,6-dioxopiperidin-3-yl)-3-fluorobenzyl)piperazin-1-yl)-2-isopropoxy-5-methylphenyl)amino)-5-(trifluoromethyl)pyridin-4-yl)amino)-N-methylbenzamide]	A (A is defined as 0% ≤ substrate protein remaining % ≤ 80%)
CNC(=O)c1ccccc1Nc1cc(Nc2ccc(N3CCC(N(C)Cc4ccc(C5CCC(=O)NC5=O)cn4)CC3)cc2OC)ncc1C(F)(F)F (centres unmarked) [GT-07658, 2-((2-((4-(4-(((5-(2,6-dioxopiperidin-3-yl)pyridin-2-yl)methyl)(methyl)amino)piperidin-1-yl)-2-methoxyphenyl)amino)-5-(trifluoromethyl)pyridin-4-yl)amino)-N-methylbenzamide]	A (A is defined as 0% ≤ substrate protein remaining % ≤ 80%)
CNC(=O)c1ccccc1Nc1cc(Nc2ccc(N3CCC(N(C)Cc4cccc(NC5CCC(=O)NC5=O)c4)CC3)cc2OC)ncc1C(F)(F)F (centres unmarked) [GT-07652, 2-((2-((4-(4-((3-((2,6-dioxopiperidin-3-yl)amino)benzyl)(methyl)amino)piperidin-1-yl)-2-methoxyphenyl)amino)-5-(trifluoromethyl)pyridin-4-yl)amino)-N-methylbenzamide]	A (A is defined as 0% ≤ substrate protein remaining % ≤ 80%)
CN(c1nccnc1CNc1nc(Nc2ccc(N3CCN(Cc4cncc(C5CCC(=O)NC5=O)c4)CC3)cc2)ncc1C(F)(F)F)S(C)(=O)=O (centres unmarked) [GT-07510, N-(3-(((2-((4-(4-((5-(2,6-dioxopiperidin-3-yl)pyridin-3-yl)methyl)piperazin-1-yl)phenyl)amino)-5-(trifluoromethyl)pyrimidin-4-yl)amino)methyl)pyrazin-2-yl)-N-methylmethanesulfonamide]	A (A is defined as 0% ≤ substrate protein remaining % ≤ 80%)
CNC(=O)c1ccccc1Nc1cc(Nc2cc(C)c(C3CCN(Cc4ccc(N5CCC(=O)NC5=O)nc4)CC3)cc2OC(C)C)ncc1C(F)(F)F [GT-07670, 2-((2-((4-(1-((6-(2,4-dioxotetrahydropyrimidin-1(2H)-yl)pyridin-3-yl)methyl)piperidin-4-yl)-2-isopropoxy-5-methylphenyl)amino)-5-(trifluoromethyl)pyridin-4-yl)amino)-N-methylbenzamide]	A (A is defined as 0% ≤ substrate protein remaining % ≤ 80%)
CS(=O)(=O)c1cccc(CNc2nc(Nc3ccc(N4CCN(Cc5ccnc(N6CCC(=O)NC6=O)c5)CC4)cc3)ncc2C(F)(F)F)c1 [GT-07462, 1-(4-((4-(4-((4-((3-(methylsulfonyl)benzyl)amino)-5-(trifluoromethyl)pyrimidin-2-yl)amino)phenyl)piperazin-1-yl)methyl)pyridin-2-yl)dihydropyrimidine-2,4(1H,3H)-dione]	A (A is defined as 0% ≤ substrate protein remaining % ≤ 80%)
CNC(=O)c1ccccc1Nc1cc(Nc2cc(C)c(C3CCN(Cc4ccc(C5CCC(=O)NC5=O)c(F)c4)CC3)cc2OC(C)C)ncc1C(F)(F)F (centres unmarked) [GT-04085, 2-((2-((4-(1-(4-(2,6-dioxopiperidin-3-yl)-3-fluorobenzyl)piperidin-4-yl)-2-isopropoxy-5-methylphenyl)amino)-5-(trifluoromethyl)pyridin-4-yl)amino)-N-methylbenzamide]	A (A is defined as 0% ≤ substrate protein remaining % ≤ 80%)
CNC(=O)c1ccccc1Nc1cc(Nc2cc(C)c(C3CCN(Cc4cnc(N5CCC(=O)NC5=O)cn4)CC3)cc2OC(C)C)ncc1C(F)(F)F [GT-07680, 2-((2-((4-(1-((5-(2,4-dioxotetrahydropyrimidin-1(2H)-yl)pyrazin-2-yl)methyl)piperidin-4-yl)-2-isopropoxy-5-methylphenyl)amino)-5-(trifluoromethyl)pyridin-4-yl)amino)-N-methylbenzamide]	A (A is defined as 0% ≤ substrate protein remaining % ≤ 80%)
CS(=O)(=O)c1cccc(CNc2nc(Nc3ccc(N4CCN(Cc5ccc(C6CCC(=O)NC6=O)c(F)c5)CC4)cc3)ncc2C(F)(F)F)c1 (centres unmarked) [GT-03823, 3-(2-fluoro-4-((4-(4-((4-((3-(methylsulfonyl)benzyl)amino)-5-(trifluoromethyl)pyrimidin-2-yl)amino)phenyl)piperazin-1-yl)methyl)phenyl)piperidine-2,6-dione]	A (A is defined as 0% ≤ substrate protein remaining % ≤ 80%)
CNC(=O)c1ccccc1Nc1cc(Nc2cc(C)c(C3CCN(Cc4cncc(N5CCC(=O)NC5=O)c4)CC3)cc2OC(C)C)ncc1C(F)(F)F [GT-07674, 2-((2-((4-(1-((5-(2,4-dioxotetrahydropyrimidin-1(2H)-yl)pyridin-3-yl)methyl)piperidin-4-yl)-2-isopropoxy-5-methylphenyl)amino)-5-(trifluoromethyl)pyridin-4-yl)amino)-N-methylbenzamide]	A (A is defined as 0% ≤ substrate protein remaining % ≤ 80%)
